Values of other authors in US20010046957A1, “Method for treating hepatitis C” (priority 1999, published 2001).

Key:
[1] = in vivo
[2] = system: yellow fever virus; details: (Neyts J)
[3] = system: HCV; details: patients with CHC virus infection following liver transplant, after initiation of MMF therapy for rejection; anecdotal report (Platz KP)
[4] = system: HCV
[5] = patients treated at currently recommended doses

Mycophenolic acid [MPA]
bioavailability [1]: limited

COc1c(C)c2c(c(O)c1C/C=C(\C)CCC(=O)OCCN1CCOCC1)C(=O)OC2 [MMF, mycophenolate mofetil]
antiviral activity [2]: antiviral activity
serum HCV RNA levels [3]: decrease in some patients

IFN-α
sustained response ([4]; IFN-α monotherapy, general CHC populations (Fried M)): 5-20%

NC(=O)c1ncn([C@@H]2O[C@H](CO)[C@@H](O)[C@H]2O)n1 [Ribavirin, 1-β-D-ribofuranosyl-1 H-1 ,2,-4-triazole-3-carboxamide]
improvement of sustained virological response rates over IFN-α monotherapy ([4]; ribavirin combined with IFNα, CHC (Lai MY; Reichard O)): approximately 2 fold
end of treatment virological response ([4]; ribavirin combined with a pegylated form of IFN-α2A, small pilot study of safety (Sulkowski M.)): 70%
sustained loss of detectable virus ([4]; ribavirin plus IFNα regimen, treated patients (McHutchison JG)): 30 - 40%
significant hemolysis, patients affected [5]: 10-20%
